The term solubility denotes how much of the substance goes into solution per volume. A lower solubility goes with little dissolved substance.

The conditions of series [1]: human plasma; cited from earlier work.
For series [2], the system named is women suffering from postpartum depression. Conditions: women with postpartum depression, cited from earlier work.
A short description of series [3]: Ganaxolone concentration reached in 30% Captisol solutions (HPLC). It counts as physicochemical. Conditions: dry mixing method, after 90 hours of stirring. On the procedure:
500 μl of 10% aqueous Polysorbate 80 solution in a 20 ml scintillation vial were combined with powdered ganaxolone (50 mg). The mixture was stirred to wet the ganaxolone. Solid Captisol (3.2 g), sufficient to form a 30% Captisol solution, was then added to the vial and the vial contents were mixed. Deionized water (8.0 g) was then added and the mixture was vigorously stirred at room temperature overnight to obtain a hazy solution. An aliquot was filtered through 0.2 μm syringe filter and ganaxolone concentration was assayed by HPLC to be 4.28 mg/ml.
Ganaxolone was vigorously stirred in 30% Captisol in the presence of 10% v/v ethanol overnight to obtain a 3.16 mg/ml ganaxolone solution.
Ganaxolone was vigorously stirred in 30% Captisol in the presence of 10% v/v glycerin overnight to obtain a 3.45 mg/ml ganaxolone solution.
Ganaxolone was vigorously stirred in 30% Captisol in the presence of 10% v/v propylene glycol overnight to obtain a 2.53 mg/ml ganaxolone solution.
Powdered ganaxolone (125 mg) was charged into 100 ml beaker. Captisol powder (7.9 g) was then added to the beaker. The mixture was mixed by stirring with a magnetic stir bar for 5 minutes. Deionized water (20.1 g) was weighed into a plastic cup. About half of the water was added into the beaker and the contents were vigorously stirred for 30 minutes to obtain a homogeneous mixture. […]

Series [4] in a line: Ganaxolone solubility in water.

For `CC(=O)[C@H]1CC[C@H]2[C@@H]3CC[C@H]4C[C@H](O)CC[C@]4(C)[C@H]3CC[C@]12C` [Allopregnanolone, 3α,5α-tetrahydroprogesterone], the half-life result in series [1] is on record as “about 45 minutes”. In addition, in series [2] (end of sixty hour intravenous infusion, baseline HAM-D greater than 25), the “mean HAM-D score lower than placebo-treated subjects” value is 12 points. In series [2] (after intravenous infusion), the “persistence of effects after infusion” value is given as 30 days.

Take `CC(=O)[C@H]1CC[C@H]2[C@@H]3CC[C@H]4C[C@](C)(O)CC[C@]4(C)[C@H]3CC[C@]12C` [Ganaxolone, 3α-hydroxy, 3β-methyl-5α-pregnan-20-one]: in series [3], the “ganaxolone concentration after prolonged stirring” value was “remained unchanged”. The same compound displayed a solubility in series [4] of less than 1 µg/mL.
